Assay results from ChEMBL document CHEMBL1201862, “PubChem BioAssay data set” (2004).
The source made the active and inactive calls.

Key:
[1] = molecular target: Troponin, cardiac muscle (Homo sapiens, UniProt P19429+P45379+P63316); experiment: Fluorescence-based biochemical high throughput dose response assay for activators of the calcium sensitivity of cardiac Regulated Thin Filaments (RTF). [Related pubchem assays (depositor defined):AID493008, AID493018, AID504382, AID504383]; assay type: protein-complex assay
[2] = molecular target: T1, Rac GTPase-activating protein 1 (Homo sapiens, UniProt Q9H0H5); experiment: blockers of MgcRacGAP-driven Rac1 GTP hydrolysis – biochemical, ADP Hunter fluorescence, primary and confirmatory, confirmation (AID 624330); assay type: functional
T1 sequence (Q9H0H5 whole entry): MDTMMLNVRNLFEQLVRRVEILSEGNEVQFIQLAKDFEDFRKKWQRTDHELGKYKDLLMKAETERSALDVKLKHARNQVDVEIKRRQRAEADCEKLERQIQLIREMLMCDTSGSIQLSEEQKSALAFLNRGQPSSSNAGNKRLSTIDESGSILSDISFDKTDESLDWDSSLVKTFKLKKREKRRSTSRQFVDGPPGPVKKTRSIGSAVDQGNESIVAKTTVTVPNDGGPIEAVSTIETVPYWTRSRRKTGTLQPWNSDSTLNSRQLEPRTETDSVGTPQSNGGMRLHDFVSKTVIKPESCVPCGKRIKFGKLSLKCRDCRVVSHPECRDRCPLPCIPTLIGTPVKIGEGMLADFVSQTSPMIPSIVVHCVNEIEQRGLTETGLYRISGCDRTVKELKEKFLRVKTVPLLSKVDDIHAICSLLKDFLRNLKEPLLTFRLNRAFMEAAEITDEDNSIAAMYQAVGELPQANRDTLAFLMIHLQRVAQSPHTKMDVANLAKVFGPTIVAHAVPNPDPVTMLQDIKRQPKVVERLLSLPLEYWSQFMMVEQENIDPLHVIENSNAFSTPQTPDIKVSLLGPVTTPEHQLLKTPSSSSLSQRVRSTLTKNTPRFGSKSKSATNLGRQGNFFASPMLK

[3] = molecular target: T2, E3 ubiquitin-protein ligase XIAP (Homo sapiens, UniProt P98170); experiment: Counter Screen using XIAP-Bir3 for Chemical Antagonists of Bir1/2 domains of IAP-family anti-apoptotic proteins. [Related pubchem assays (depositor defined):AID1018, AID1449, AID1514, AID1638, AID1749, AID1750, AID488957, AID488963]
[4] = molecular target: T2, E3 ubiquitin-protein ligase XIAP; experiment: small molecules displacing peptide from XIAP – biochemical, IAP family, fluorescence polarization (AID 1018); assay type: functional
[5] = molecular target: Glyceraldehyde-3-phosphate dehydrogenase (Homo sapiens, UniProt P04406)
[6] = molecular target: T3, Alkaline phosphatase, tissue-nonspecific isozyme (Homo sapiens, UniProt P05186); experiment: potency against alkaline phosphatase TNAP – biochemical, luminescent, dose response, SAR follow-up (AID 1056)
T3 sequence (P05186 whole entry): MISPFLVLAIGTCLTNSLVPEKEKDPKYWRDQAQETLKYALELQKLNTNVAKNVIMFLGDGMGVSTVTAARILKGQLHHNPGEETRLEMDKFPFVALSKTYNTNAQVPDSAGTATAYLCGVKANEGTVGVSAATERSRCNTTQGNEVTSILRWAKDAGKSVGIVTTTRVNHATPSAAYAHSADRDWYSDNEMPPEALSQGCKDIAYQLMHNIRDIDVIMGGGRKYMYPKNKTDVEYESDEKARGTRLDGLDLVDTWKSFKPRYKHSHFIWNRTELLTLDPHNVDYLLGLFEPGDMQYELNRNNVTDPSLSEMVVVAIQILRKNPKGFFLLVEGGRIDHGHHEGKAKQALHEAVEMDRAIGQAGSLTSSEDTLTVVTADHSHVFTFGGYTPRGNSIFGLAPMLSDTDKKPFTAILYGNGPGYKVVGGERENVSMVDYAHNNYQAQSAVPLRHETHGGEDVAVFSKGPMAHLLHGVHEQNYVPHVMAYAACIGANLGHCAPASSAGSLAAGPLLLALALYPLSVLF

[7] = molecular target: Alkaline phosphatase, placental type (Homo sapiens, UniProt P05187); experiment: human placental alkaline phosphatase inhibition – biochemical, luminescence, confirmation (AID 1512); assay type: functional
[8] = molecular target: T4, Mannose-6-phosphate isomerase (Homo sapiens, UniProt P34949); experiment: phosphomannose isomerase inhibition – biochemical, fluorescence intensity, confirmation (AID 1535)
T4 sequence (P34949 whole entry): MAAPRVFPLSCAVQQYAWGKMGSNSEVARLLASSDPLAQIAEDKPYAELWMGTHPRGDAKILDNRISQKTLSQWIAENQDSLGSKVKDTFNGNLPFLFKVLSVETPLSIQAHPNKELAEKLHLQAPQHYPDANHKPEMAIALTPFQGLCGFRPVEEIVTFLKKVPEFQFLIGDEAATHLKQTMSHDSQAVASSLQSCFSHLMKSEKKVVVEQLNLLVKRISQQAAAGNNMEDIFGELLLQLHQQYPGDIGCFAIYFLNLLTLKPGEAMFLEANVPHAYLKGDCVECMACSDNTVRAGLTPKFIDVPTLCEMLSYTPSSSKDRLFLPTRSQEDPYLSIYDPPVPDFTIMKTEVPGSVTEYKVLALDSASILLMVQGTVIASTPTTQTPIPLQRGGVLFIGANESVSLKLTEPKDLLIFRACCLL

[9] = molecular target: Phosphomannomutase 2 (Homo sapiens, UniProt O15305); experiment: Counter screen SAR assay for PMM2 inhibitors via a fluorescence intensity assay. [Related pubchem assays (depositor defined):AID1545, AID1574]
[10] = molecular target: DNA damage-inducible transcript 3 protein (Mus musculus, UniProt P35639); assay type: functional, Cricetulus griseus
[11] = molecular target: T5, Voltage-gated N-type calcium channel alpha-1B subunit/Amyloid beta A4 precursor protein-binding family A member 1 (Homo sapiens, UniProt Q00975+Q02410); assay type: protein assay
[12] = molecular target: T5, Voltage-gated N-type calcium channel alpha-1B subunit/Amyloid beta A4 precursor protein-binding family A member 1; assay type: protein assay; remark: listed apart in the source
[13] = molecular target: T6, Coagulation factor XII (Homo sapiens, UniProt P00748); experiment: activated coagulation factor XII inhibitor potency, concentration-effect curve, cell-free (AID 716); assay type: functional
T6 sequence (P00748 whole entry): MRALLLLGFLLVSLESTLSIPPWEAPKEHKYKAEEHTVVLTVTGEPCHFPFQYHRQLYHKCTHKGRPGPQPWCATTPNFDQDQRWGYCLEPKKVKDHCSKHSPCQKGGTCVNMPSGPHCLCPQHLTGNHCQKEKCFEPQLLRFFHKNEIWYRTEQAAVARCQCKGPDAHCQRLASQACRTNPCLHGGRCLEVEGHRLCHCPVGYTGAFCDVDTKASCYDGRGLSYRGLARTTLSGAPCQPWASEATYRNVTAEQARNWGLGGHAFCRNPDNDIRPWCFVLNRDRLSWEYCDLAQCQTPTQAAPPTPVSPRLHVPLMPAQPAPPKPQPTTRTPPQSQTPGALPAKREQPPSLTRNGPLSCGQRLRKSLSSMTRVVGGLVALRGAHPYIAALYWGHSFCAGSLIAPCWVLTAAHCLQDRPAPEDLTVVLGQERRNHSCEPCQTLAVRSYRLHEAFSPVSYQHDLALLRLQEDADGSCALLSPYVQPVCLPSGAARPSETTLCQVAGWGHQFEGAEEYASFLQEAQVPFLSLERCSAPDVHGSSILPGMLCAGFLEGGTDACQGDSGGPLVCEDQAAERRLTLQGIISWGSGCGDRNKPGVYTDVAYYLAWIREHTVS

[14] = tested on: HEK293; experiment: inhibition of NOD1-driven NF-kB reporter – cell-based, luminescence, uHTS, primary screen (AID 1578); assay type: functional; conditions: Homo sapiens
[15] = HEK-293T viability loss after treatment – luminescence, T-cell screen hits, cytotoxicity control for TCR NF-kB inhibitor project, dose response (AID 489026); assay type: functional, cell-based;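 also: cells exposed to compound about 14 hours before the viability readout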
[16] = tested on: HEK293; experiment: NOD2 signaling inhibitors in MDP-stimulated cells, cell-based, uHTS, luminescence (AID 2001); assay type: functional; conditions: Homo sapiens
[17] = tested on: HEK293; experiment: cells; assay type: functional, cell-based; conditions: Homo sapiens
[18] = tested on: HEK293; experiment: cells; assay type: functional, cell-based; conditions: Homo sapiens; remark: listed apart in the source
[19] = tested on: HEK293; experiment: cells; assay type: functional, cell-based; conditions: Homo sapiens; remark: listed apart in the source
[20] = molecular target: Nucleotide-binding oligomerization domain-containing protein 2 (Homo sapiens, UniProt Q9HC29); experiment: inhibition of NOD2-driven NF-kB reporter – cell-based, luminescence, uHTS, HEK293 (AID 1566); assay type: functional

For `CCCN1CCc2c(sc(NC(=S)NC(=O)c3ccccc3)c2C#N)C1`, the EC50 [1] was 3.73 µM (active).
For `CCc1ccc2c(COC(=O)CNS(=O)(=O)c3ccc(NC(C)=O)cc3)cc(=O)oc2c1`, the EC50 [1] was > 71.5 µM (inactive).
In the case of `O=C(/C=C/Nc1ccc(Nc2ccccc2)cc1)c1cccs1`, the IC50 [2] is reported as 230 µM (active), the IC50 [3] is reported as > 100 µM (inactive) and the IC50 [4] is reported as > 100 µM (not active).
In the case of `O=C(c1cc(-c2ccc(Cl)cc2Cl)n[nH]1)N1CCCCC1`, the IC50 [5] is reported as > 100 µM (not active), the IC50 [6] is reported as 2.52 µM (active) and the IC50 [7] is reported as > 100 µM (inactive).
With `Oc1ccc(/N=c2\ssnc2Cl)cc1` the IC50 [8] was > 100 µM (inactive) and the IC50 [9] was > 100 µM (inactive).
For `CCCCN1C(=O)/C(=N\Nc2ccccc2F)c2ccccc21`, the IC50 [6] was > 100 µM (inactive) and the IC50 [7] was 78.5 µM (active).
For `CCCCNS(=O)(=O)c1ccc2nc(-c3cccnc3)cc(C(=O)NC3CCCC3)c2c1`, the “Absolute IC50 (CHOP)” value [10] was 10 µM.
In the case of `COC(=O)c1ccc(COc2ccc(/C=N/Nc3nc(C)cc(O)n3)cc2)cc1`, the IC50 [11] is reported as > 50 µM (inactive) and the IC50 [12] is reported as > 56.8 µM (not active).
For `C=CCOC(=O)C1=C(C)N=C(C)/C(=C(/O)OCC=C)C1c1ccc(O)cc1` (stereo not drawn), the IC50 [13] was > 50 µM (inactive).
In the case of `COC(=O)Cc1nn(-c2nc3ccccc3s2)c(O)c1/C(C)=N/c1ccc(OC)cc1`, the EC50 [14] is reported as < 310 nM (inactive), the IC50 [15] is reported as > 80 µM (inactive) and the IC50 [16] is reported as 103 nM (active). For the same compound, the IC50 [17] was 1.13 µM (active), the IC50 [18] was > 20 µM (inactive) and the IC50 [19] was > 20 µM (inactive). For the same compound, the EC50 [20] was 100 nM (active).
